Structures can show the parent of a compound that is named as a salt.
`O=S(=O)(C1CCCCC1)n1cc(C2=CCN3CCCC3C2)c2cc(F)ccc21` (stereo not shown) (as salt: hydrochloride) [Example 4, 1-Cyclohexanesulfonyl-5-fluoro-3-(1,2,3,5,8,8a-hexahydro-indolizine-7-yl)-1H-indole hydrochloride] gave a melting point of 263 °C. With `CN1CC=C(c2cn(S(=O)(=O)C3CCCCC3)c3ccc([N+](=O)[O-])cc23)CC1` [Example 1, 1-Cyclohexanesulfonyl-3-(1-methyl-1,2,3,6-tetrahydropyridine-4-yl)-5-nitro-1H-indole] the melting point was 155 to 160 °C. `CN1CC=C(c2cn(S(=O)(=O)C3CCCCC3)c3ccc(Cl)cc23)CC1` [Example 2, 5-Chloro-1-cyclohexanesulfonyl-3-(1-methyl-1,2,3,6-tetrahydropyridine-4-yl)-1H-indole] showed a melting point of 88 to 90 °C. With `CN1CC=C(c2cn(S(=O)(=O)C3CCCCC3)c3ccc(N)cc23)CC1` [Example 3, 5-Amino-1-cyclohexanesulfonyl-3-(1-methyl-1,2,3,6-tetrahydropyridine-4-yl)-1H-indole] the melting point was 75 °C.

From patent US7655690B2, “1-sulfonylindole derivatives, their preparation and their use as 5-HT6 ligands” (Laboratorios del Dr. Esteve S.A., priority 2004, dated 2010)
